Measured values reported in patent US9884012B2, “Use of PEDF-derived polypeptides for promoting muscle or tendon regeneration or arteriogenesis” (MacKay Memorial Hospital, priority 2012, dated 2018).
Marks after values point to notes of the source that are not given here.

Key:
[1] = test system: tendon stem cells (TSCs) in injured tendon; assay: tendo Achilles injury model, in vivo TSC proliferation (nucleostemin staining); set-up: species or system Sprague-Dawley rats; conditions: injured tendon specimens of Example 4.1; sustained-release formulation (Bolus: bolus 29-mer)
Experimental: De-paraffinized tissue sections or 4% paraformaldehyde fixed rabbit tendon stem cells (TSCs) were blocked with 10% goat serum and 5% BSA for 1 hour. Double staining was done using primary antibodies against α-SMA (1:100 dilution), IB4 (5 μg/ml), Pax7 (1:100 dilution), nucleostemin (1:100 dilution) and type I collagen 1A1 (1:50) at 37° C. for 2 hours, followed by incubation with the appropriate rhodamine- or FITC-conjugated donkey IgG for 1 hour at RT. Nuclei were located by counterstaining with Hoechst 33258 for 7 minutes. Images were captured using a Zeiss epifluorescence microscope with a CCD camera.
To investigate the effects of the present PEDF peptides on tendon regeneration, a rat model with tendon injury was established as follows. Adult 10-week-old male Sprague-Dawley rats (total n=50; initial body weight=312±11 g) were anesthetized by an intraperitoneal injection of a xylazine (10 mg/kg). Then, the left tendo Achilles injury was created by full-thickness insertion of an 18-gauge needle through tendo Achilles 1 cm proximal to its insertion into the calcaneum. This created a horizontal (transaction) wound which was flanked by intact tendon tissue on both sides to prevent the retraction of severed ends.
The rats were randomly assigned (n=10/group) to five experimental groups and treated as follows. In the blank control group, the mice were treated with 150 μl of blank alginate gel. For the bolus control group, 150 μl of the bolus formulation (29-mer) was administered. […]
Specimens obtained from animals in different experimental groups of Example 4.1 were stained for nucleostemin (green) to investigate whether in vivo TSC proliferation would be promoted by the present sustained-release formulation during the tendon wound healing process. In quantitative analysis, ten randomly selected microscopic fields in each experimental group were photographed, and the percentage of nucleostemin-positive cells per total cells (counterstained by Hoechst 33258; blue) was calculated.

[2] = test system: adductor magnus muscle arterioles; assay: hindlimb ischemia model, arteriole density (α-SMA) in adductor magnus muscle; type: in vivo, C57BL/6 wild-type mice; conditions: two weeks after surgery, sustained-release formulation (Bolus: bolus 29-mer)
Experimental: The small artery densities (α-SMA positive cells surrounding the whole circumference of the vessel) were measured and images were taken from 10 randomly-selected areas of adductor magnus muscle (200× magnification) in each sample, and blinded quantification was performed in triplicate by manually counting within each section; values from five sections were then averaged and expressed as arteriole density per mm^2.
(§1) 6-week-old female C57BL/6 wild-type mice were anesthetized by an intraperitoneal injection of a mixture of zoletil (6 mg/kg) and xylazine (3 mg/kg). Hair was removed from the hindquarter with a depilating cream. To establish hindlimb ischemia, unilateral external iliac and femoral arteries and veins were ligated, cut, and excised. After surgery, the mice were randomly assigned to several experimental groups (n=6, each group) and treated as follows. In the blank control group, the mice were treated with 50 μl of blank alginate gel, whereas in the bolus control group, the mice received the bolus formulation containing 29-mer. In the PEDF peptide/alginate gel treatment groups, the mice received 50 μl of the sustained-release formulation, which comprised either 29-mer, 24-mer, or 20-mer. Additionally, in a PEDF 18-mer control group, mice were treated with a sustained-release formulation containing a PEDF 18-mer peptide. Treatments were applied by way of a single intramuscular injection to the gracilis muscle immediately after femoral artery and vein excision operation. The incision was closed after the wound was irrigated with sterile saline.
To investigate the arteriogenic effect of the present sustained-release formulation, adductor magnus muscles (located at the same level as femoral artery excision and in which arteriogenesis responsible for establishing collateral circulation is expected to be found) were harvested from animals in each experimental condition, two weeks after the surgery. Arterioles in muscle cross sections were identified by immunohistological staining for vascular smooth muscle cells (α-SMA; brown), and nuclei were labeled with hematoxylin; representative photographs were provided in FIG. 5. Quantitative analysis was also performed and the results were summarized in Table 3, and the data were expressed as α-SMA-positive arterioles per mm^2 in the peri-injury region.

aortic ring explants = assay: rat aortic ring sprouting assay (ex vivo neovessel sprouting); type: cell-based; conditions: day 4; 50 ng/ml PEDF peptide, 50 ng/ml VEGF-A, 20 ng/ml FGF-2; MCDB131, 1% FBS, Matrigel
Experimental: To further confirm the neovessel development promoted by PEDF peptides, rat aortic ring sprouting assay was performed. Thoracic aortas were removed from euthanized rats and gently stripped of peri-aortic fibroadipose tissue. Aortas were sectioned into about 2-mm length rings, which were then embedded in a growth factor-reduced Matrigel. Gels containing the aortic rings were polymerized in 12-well plates incubated at 37° C. for 30 minutes. 1 ml of MCDB131 medium supplemented with 100 units/ml penicillin and […] streptomycin, 1% FBS, and a supplemental agent (50 ng/ml VEGF-A, 20 ng/ml FGF-2, or 50 ng/ml 29-mer, 24-mer, 20-mer, Mo 29-mer, Mo 20-mer, 25-mer, or 18-mer) were added to the Matrigel-containing explants. The cultures were propagated at 37° C. in a humidified incubator for up to 4 days, with media changes every other day. Neovessel sprouting was assessed until day 4 using an inverted microscope platform (Leica) with bright-field optics; representative photographs were provided in FIG. 6. Quantification of neovessel sprouting was assessed using Image-Pro Plus 6.0 software (Dendrites program). The experiment was repeated in triplicate.

tibialis anterior muscle = assay: hindlimb ischemia model, tibialis anterior muscle necrosis/fibrosis and centrally nucleated fibers; type: in vivo, C57BL/6 wild-type mice; conditions: two weeks after surgery, sustained-release formulation (Bolus: bolus 29-mer)
Experimental: The gracilis, adductor magnus, soleus, and tibialis muscles were fixed in 4% paraformaldehyde, dehydrated with graded ethanol series, and paraffinized. Fixed samples were de-paraffinized in xylene and rehydrated in a graded series of ethanol. Tissues were sliced into 5-μm sections. General histology was performed using H&E dye.
To ascertain the number of centrally nucleated muscle fibers, sections were stained with H&E and then photographed as described above. At least 100 stained fibers were randomly chosen from each photo. Muscle fibers were judged centrally nucleated if one or more nuclei were not located at the periphery of the fiber. The data were expressed as a % of the total number of muscle fibers counted. Results were evaluated from 6 sections per muscle section, and 10 mice at each group.
as §1
In most hindlimb ischemia models, tissue necrosis generally occurs in the muscles below the knee. For example, tibialis anterior muscle, which is distant to the gracilis muscle where the treatment was administered, often undergoes extensive necrosis with regeneration after femoral artery excision. The intensity of Masson's trichrome blue color staining depended on the content of collagen fibers in the investigated tissue, and fibrosis is the result of necrosis. […] Results from representative samples are illustrated in FIGS. 4A and 4B.
Statistical analyses regarding injured area (necrotic area+fibrotic area) and numbers of centrally nucleated fibers were also performed at two weeks after the surgery, and the results were summarized in Table 2. The injured area is expressed as the percent of total stained area (%), and the centrally nucleated fibers is expressed as the total number of muscle fibers counted (%).

SLGAEQRTESIIHRALYYDL [20-mer, synthetic peptide corresponding to residues 93-112 of human PEDF]
Nucleostemin Labeling Index (%) [1]: 15.0 ± 3.9 % | Arteriole Density per mm^2 (α-SMA-positive arterioles) [2]: 10.7 ± 1.2 per mm^2 | Neovessel Sprouting Fold (aortic ring explants): 6.5* fold of untreated aortic ring | Centrally nucleated fibers (%) (tibialis anterior muscle): 61.2 ± 5.8 % | Injured Area (%) (necrotic area + fibrotic area, percent of total stained area) (tibialis anterior muscle): 38.0 ± 5.2 %

SLGAEQRTESIIHRALYYDLISSP [24-mer, synthetic peptide corresponding to residues 93-116 of human PEDF]
Nucleostemin Labeling Index (%) [1]: 16.8 ± 4.2 % | Arteriole Density per mm^2 (α-SMA-positive arterioles) [2]: 10.0 ± 0.58 per mm^2 | Neovessel Sprouting Fold (aortic ring explants): 6.2* fold of untreated aortic ring | Centrally nucleated fibers (%) (tibialis anterior muscle): 67.8 ± 5.3 % | Injured Area (%) (necrotic area + fibrotic area, percent of total stained area) (tibialis anterior muscle): 36.8 ± 5.5 %

SLGAEQRTESIIHRALYYDLISSPDIHGT [29-mer, synthetic peptide corresponding to residues 93-121 of human PEDF]
Nucleostemin Labeling Index (%) [1]: 16.4 ± 2.9 % | Arteriole Density per mm^2 (α-SMA-positive arterioles) [2]: 11.7 ± 1.5 per mm^2 | Neovessel Sprouting Fold (aortic ring explants): 5.6* fold of untreated aortic ring | Centrally nucleated fibers (%) (tibialis anterior muscle): 72.5 ± 5.2 % | Injured Area (%) (necrotic area + fibrotic area, percent of total stained area) (tibialis anterior muscle): 39.5 ± 4.2 %
